Measured values: patent US20040102652A1, “Optically active2-aminotetralin derivatives, the processes for the preparation thereof and the therapeutical use of pharmaceutical compositions containing them” (priority 2000, published 2004)
Entries after “also recorded” stand apart in the source; their conditions may differ. Like-named read-outs stand apart in the source and are kept apart here.

Columns and labels:
[1] = target: T1, β2-receptors (Cavia porcellus, UniProt Q8K4Z4); experiment: Guinea-pig tracheal strips contracted with carbachol, relaxing effect
T1 construct: was also tested in isolated tissue preparations; from tissue; host or cells: guinea-pig tracheal strips
T1 sequence (Q8K4Z4 whole entry): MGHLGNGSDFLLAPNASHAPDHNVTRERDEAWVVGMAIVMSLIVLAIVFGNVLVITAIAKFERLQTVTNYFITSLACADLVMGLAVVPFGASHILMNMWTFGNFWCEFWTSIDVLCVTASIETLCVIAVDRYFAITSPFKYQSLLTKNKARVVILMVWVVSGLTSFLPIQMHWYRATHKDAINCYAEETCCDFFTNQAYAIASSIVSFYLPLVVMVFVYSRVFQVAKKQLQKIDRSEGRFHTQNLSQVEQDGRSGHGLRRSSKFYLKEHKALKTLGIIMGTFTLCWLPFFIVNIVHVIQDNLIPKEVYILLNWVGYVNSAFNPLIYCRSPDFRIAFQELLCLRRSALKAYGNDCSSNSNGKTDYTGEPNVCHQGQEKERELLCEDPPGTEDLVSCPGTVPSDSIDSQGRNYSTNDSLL

[2] = target: T2, β2-receptor (Rattus norvegicus, UniProt P10608); experiment: Binding study, rat lung, [3H]-(−)dihydroalprenolol
T2 construct: from tissue; host or cells: rat lung
T2 sequence (P10608 whole entry): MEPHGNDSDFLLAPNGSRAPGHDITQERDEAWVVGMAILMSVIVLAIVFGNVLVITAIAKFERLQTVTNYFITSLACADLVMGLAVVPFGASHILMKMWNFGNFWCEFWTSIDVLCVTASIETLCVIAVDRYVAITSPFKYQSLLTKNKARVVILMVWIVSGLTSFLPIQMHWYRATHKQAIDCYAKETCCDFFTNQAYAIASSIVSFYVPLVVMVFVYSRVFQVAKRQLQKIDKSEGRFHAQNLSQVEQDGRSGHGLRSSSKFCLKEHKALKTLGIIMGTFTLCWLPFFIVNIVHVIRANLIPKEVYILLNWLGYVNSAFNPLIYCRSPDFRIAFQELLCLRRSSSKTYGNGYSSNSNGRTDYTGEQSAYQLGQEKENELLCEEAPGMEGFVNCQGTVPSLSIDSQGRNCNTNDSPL
Description: (§1) The affinity of the enantiomers for adrenergic and dopaminergic receptors was tested by binding studies in cerebral and peripheral tissues. The results are reported in Table 1 compared with CHF 1024 racemate in terms of inhibition constant (Ki) expressed as nanomolar concentration (nM).

[3] = target: T3, β1-receptor (Rattus norvegicus, UniProt P18090); experiment: Binding study, rat lung, [3H]-(−)dihydroalprenolol
T3 construct: from tissue; host or cells: rat lung
T3 sequence (P18090 whole entry): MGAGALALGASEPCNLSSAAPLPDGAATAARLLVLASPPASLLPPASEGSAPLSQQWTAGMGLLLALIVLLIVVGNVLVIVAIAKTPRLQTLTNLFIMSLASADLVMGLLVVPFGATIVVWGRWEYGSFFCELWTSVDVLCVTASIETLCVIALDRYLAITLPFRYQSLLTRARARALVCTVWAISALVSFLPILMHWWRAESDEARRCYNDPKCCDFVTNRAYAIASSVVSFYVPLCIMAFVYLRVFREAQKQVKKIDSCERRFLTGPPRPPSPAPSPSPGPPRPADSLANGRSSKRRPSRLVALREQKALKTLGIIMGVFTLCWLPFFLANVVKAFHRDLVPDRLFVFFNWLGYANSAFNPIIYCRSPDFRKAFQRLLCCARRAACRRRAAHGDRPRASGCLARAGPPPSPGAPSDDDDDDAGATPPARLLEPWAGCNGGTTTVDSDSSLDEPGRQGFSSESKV
Description: as §1

[4] = target: Central α1-receptor; experiment: Binding study, rat cerebral cortex, [3H]-prazosin
Description: as §1

[5] = target: β1-receptor (Cavia porcellus, UniProt H0W3H1); details: guinea pig, read-out: effectiveness (α)
Chain of β1-receptor (Cavia porcellus, UniProt H0W3H1) (H0W3H1 1-470): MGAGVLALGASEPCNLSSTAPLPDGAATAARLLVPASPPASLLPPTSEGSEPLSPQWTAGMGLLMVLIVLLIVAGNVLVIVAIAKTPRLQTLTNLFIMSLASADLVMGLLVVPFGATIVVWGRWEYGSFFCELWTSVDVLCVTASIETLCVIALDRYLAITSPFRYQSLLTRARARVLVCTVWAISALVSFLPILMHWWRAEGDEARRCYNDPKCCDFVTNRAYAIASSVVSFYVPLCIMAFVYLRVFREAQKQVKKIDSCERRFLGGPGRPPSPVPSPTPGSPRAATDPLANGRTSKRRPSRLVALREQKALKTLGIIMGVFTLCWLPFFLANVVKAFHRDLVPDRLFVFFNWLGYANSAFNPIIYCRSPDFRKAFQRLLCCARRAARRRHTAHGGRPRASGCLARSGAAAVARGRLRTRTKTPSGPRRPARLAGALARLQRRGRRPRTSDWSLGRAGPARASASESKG

[6] = target: Central DA2-receptor (Rattus norvegicus, UniProt P61169); experiment: Binding study, rat striatum, [3H]-spiperone; details: for Ki: rat striatum, [3H]-spiperone
Chain of Central DA2-receptor (P61169 whole entry): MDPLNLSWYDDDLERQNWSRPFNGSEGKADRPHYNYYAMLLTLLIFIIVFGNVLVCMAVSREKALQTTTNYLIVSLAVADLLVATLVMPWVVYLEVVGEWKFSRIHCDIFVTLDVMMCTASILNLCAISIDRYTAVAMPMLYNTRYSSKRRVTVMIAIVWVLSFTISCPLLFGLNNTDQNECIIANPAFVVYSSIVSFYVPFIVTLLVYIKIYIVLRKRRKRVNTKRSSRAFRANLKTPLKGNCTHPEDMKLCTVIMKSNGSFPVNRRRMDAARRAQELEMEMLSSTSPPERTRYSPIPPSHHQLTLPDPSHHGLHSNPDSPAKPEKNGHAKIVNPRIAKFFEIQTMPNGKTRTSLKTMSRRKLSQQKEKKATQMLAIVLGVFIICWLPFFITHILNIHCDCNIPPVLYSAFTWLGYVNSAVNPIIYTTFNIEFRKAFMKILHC
Description: as §1

[7] = target: T4, Central DA1 receptor (Rattus norvegicus, UniProt P18901); experiment: Binding study, rat striatum, [3H]-SCH23390
T4 construct: from tissue; host or cells: rat striatum
T4 sequence (P18901 whole entry): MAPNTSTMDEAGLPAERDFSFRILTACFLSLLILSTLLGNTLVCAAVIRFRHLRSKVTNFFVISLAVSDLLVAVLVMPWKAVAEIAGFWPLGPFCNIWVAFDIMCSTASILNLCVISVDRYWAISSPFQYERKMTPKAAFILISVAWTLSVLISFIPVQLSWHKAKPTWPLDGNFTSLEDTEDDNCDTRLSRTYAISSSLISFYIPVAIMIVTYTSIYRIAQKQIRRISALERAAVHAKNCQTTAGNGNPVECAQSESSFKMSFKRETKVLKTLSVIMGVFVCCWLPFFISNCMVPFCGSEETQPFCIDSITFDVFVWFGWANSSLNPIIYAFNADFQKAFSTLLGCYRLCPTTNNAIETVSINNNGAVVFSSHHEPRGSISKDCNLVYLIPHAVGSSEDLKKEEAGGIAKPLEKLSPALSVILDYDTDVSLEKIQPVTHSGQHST
Description: as §1

[8] = test system: conscious spontaneously hypertensive rats; experiment: Arterial pressure and heart rate in conscious spontaneously hypertensive rats (telemetry); assay type: in vivo, rat; details: for recovery to basal values after treatment: after interruption of s.c. treatment; for effect on heart rate (words, summary): subcutaneous administration for 7 days
[9] = test system: anaesthetized normotensive rats; experiment: Arterial pressure in anaesthetized normotensive rats, intravenous infusion; assay type: in vivo, rat; details: intravenous infusion for 30 min
Description: In anaesthetized normotensive rats with recording of the arterial pressure, the effects induced by intravenous infusion for 30 min of CHF 1024 enantiomers compared with the racemate were evaluated. Control animals only received the vehicle. The results are reported in FIG. 1 as mean values and standard error.

[10] = target: Pre-synaptic DA2 receptor (Oryctolagus cuniculus, UniProt G1T1Q0); experiment: Electrically stimulated rabbit rectococcigeus muscle, inhibition of contraction; details: read-out: effectiveness (α)
Chain of Pre-synaptic DA2 receptor (G1T1Q0 1-443): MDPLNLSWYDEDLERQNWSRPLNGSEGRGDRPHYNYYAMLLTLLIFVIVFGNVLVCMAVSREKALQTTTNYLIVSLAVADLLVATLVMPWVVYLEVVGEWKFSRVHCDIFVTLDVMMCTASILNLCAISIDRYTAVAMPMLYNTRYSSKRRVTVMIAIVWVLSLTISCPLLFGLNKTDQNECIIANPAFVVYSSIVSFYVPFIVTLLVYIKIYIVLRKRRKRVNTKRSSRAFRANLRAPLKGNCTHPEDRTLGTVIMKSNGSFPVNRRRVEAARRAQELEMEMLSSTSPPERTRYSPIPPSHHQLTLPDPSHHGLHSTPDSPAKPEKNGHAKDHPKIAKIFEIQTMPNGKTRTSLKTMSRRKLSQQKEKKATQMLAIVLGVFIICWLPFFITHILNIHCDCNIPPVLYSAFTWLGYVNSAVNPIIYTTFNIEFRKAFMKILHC
Description: (§2) The pharmacological activity of the enantiomers toward the same receptors was also tested in isolated tissue preparations. […] EC50 is the concentration inducing 50% of the maximal response and is expressed in mols/liter (M).

[11] = target: Pre-synaptic DA2 and α2 receptor; experiment: Perfused rabbit ear artery, inhibition of electrically-induced contraction; details: for pD2 (−log EC50): EC50 in M
Description: as §2

[12] = target: Central α2-receptor; experiment: Binding study, rat cerebral cortex, [3H]-rauwolscine; details: for Ki: rat cerebral cortex, [3H]-rauwolscine
Description: as §1

[13] = test system: α1 receptor; details: background statement; cited from earlier work
[14] = Diffraction studies of crystal modifications; details: temperature dependent
[15] = after oral administration of the racemate
[16] = test system: plasma and tissular esterases; details: after administration through different routes (oral, transdermal); cited from earlier work
[17] = EC50 in M, guinea-pig tracheal strips, read-out: pD2 (−log EC50) (converted)
[18] = rat lung, [3H]-(−)dihydroalprenolol, read-out: Ki
[19] = rat striatum, [3H]-SCH23390, read-out: Ki
[20] = higher dose (6 nmol/kg/min) s.c., 7 days

| SMILES | EC50 [1, 17] [nM] | effectiveness (α) ([1]; guinea-pig tracheal strips) | Ki [2, 18] [nM] | Ki [3, 18] [nM] | Ki [4] [nM] | Emax [5] [%] | Ki [6] [nM] | Ki [7, 19] [nM] | effect on heart rate ([8]; 3 nmol/kg/min s.c., 7 days) | recovery to basal values after treatment [8] | effect on heart rate (words, summary) [8] | effect on arterial pressure (hypotensive response) [9] | Emax [10] [%] | pD2 (−log EC50) ([11]; rabbit ear artery) | effectiveness (α) ([11]; rabbit ear artery) | Ki [12] [nM] | structural rearrangement of the crystal form (polymorphic stability) [14] | other results |
| --- | --- | --- | --- | --- | --- | --- | --- | --- | --- | --- | --- | --- | --- | --- | --- | --- | --- | --- |
| CN[C@@H]1CCc2c(ccc(O)c2O)C1 [CHF 1869] | 251 | 0.97 | 1400 | 90000 | 21000 | 83 | 2400 | 7400 | no reduction of heart rate | faster than with CHF 1870 | no reduction of heart rate | rapid onset and disappearance of the hypotensive effects; also recorded: more rapid but less lasting response | 87 | <5.0 | 0.92 | 1600 | – | hypotensive effect ([8]; 3 nmol/kg/min s.c., 7 days): slight, although noticeable, hypotensive effect; effect on heart rate [8, 20]: no reduction of heart rate is observed, which even increases during the first 2-3 days of treatment; hypotensive response [8, 20]: comparable to that caused by its optical antipode; activity on α2 and DA2 receptors ([11]; isolated tissue preparations): poor activity on α2 and DA2 receptors |
| CNC1CCc2c(ccc(O)c2O)C1 (racemic) [CHF 1024, (±)-5,6-dihydroxy-2-methylaminotetralin, reference compound] | – | 0.96 | – | – | 16000 | 81 | – | – | – | – | – | – | 96 | 9.0 | 0.94 | 260 | – | agonist activity on α1 receptor [13]: negligible; EC50 [1]: 251 nM; Ki [2]: 1500 nM; Ki [3]: 45000 nM; Ki ([6]; read-out: Ki): 290 nM; Ki [7]: 13000 nM |
| CN[C@H]1CCc2c(ccc(OC(=O)C(C)C)c2OC(=O)C(C)C)C1.Cl [CHF 1810, (−)-(S)-5,6-diisobutyroyloxy-2-methylaminotetralin hydrochloride] | – | – | – | – | – | – | – | – | – | – | – | – | – | – | – | – | does not show any structural rearrangement below 100 °C | – |
| CNC1CCc2c(ccc(OC(=O)C(C)C)c2OC(=O)C(C)C)C1 (racemic) [CHF 1035, (±)-(R,S)-5,6-Diisobutyroyloxy-2-methylaminotetralin] | – | – | – | – | – | – | – | – | – | – | – | – | – | – | – | – | form I shows two remarkable structural rearrangements | AUC of the dextro form relative to that of the laevo form [15]: about one half; conversion into the desesterified form CHF 1024 [16]: quickly and completely converted |
| CN[C@H]1CCc2c(ccc(O)c2O)C1 [CHF 1870, (−)-(S)-5,6-dihydroxy-2-methylaminotetralin] | 398 | 0.97 | 1000 | 40000 | 15000 | 91 | 120 | 6800 | greater reduction of heart rate compared with the racemate | took place more slowly | more marked reduction of heart rate than an equivalent dose of the racemate | dose-dependent reduction of the arterial pressure which was maintained even after infusion was discontinued; also recorded: hypotensive response slightly lower but remarkably longer-lasting than that of the racemate | 91 | 9.6 | 0.92 | 130 | – | affinity for DA2-dopaminergic receptors relative to the dextro enantiomer (CHF 1869) ([6]; from Table 1): about 20 times; reduction of arterial pressure ([8]; 3 nmol/kg/min s.c. osmotic minipump, 7 days): 20-30 mmHg; reduction of heart rate [8, 20]: about 70 beats/minute; potency relative to its optical antipode ([11]; rabbit ear artery): at least 10000 times; affinity for α2-adrenergic receptors relative to the dextro enantiomer (CHF 1869) ([12]; from Table 1): ~10 times |
